Values of other authors, collected in patent US20100317740A1, “Method for Predicting Response to Tamoxifen” (GEORGE MASON INTELLECTUAL PROPERTIES, INC., priority 2007, published 2010).

System: node negative breast cancer with estrogen receptor on tumors
Conditions: women with node negative breast cancer and estrogen receptor on their tumors

## CC/C(=C(\c1ccccc1)c1ccc(OCCN(C)C)cc1)c1ccccc1 [Tamoxifen]
  eligible women who do not respond to Tamoxifen therapy: 30-40%
